# Patent publication US11064699B2, “Condensed heterocyclic compound or salt thereof, agricultural and horticultural insecticide comprising the compound or the salt, and method for using the insecticide” (Nihon Nohyaku Co., Ltd., priority 2017, dated 2021)
# Tests used:
# Laodelphax striatellus = assay: Insecticidal test on Laodelphax striatellus (rice seedling dip); type: in vivo; conditions: 192 h, rice seedlings dipped 30 seconds, 3rd-instar larvae, 8 days after inoculation, read-out: insecticidal efficacy (corrected mortality rate), activity level
# From the text: Insecticidal Test on Laodelphax striatellus
# The condensed heterocyclic compounds represented by the general formula (1) of the present invention or salts thereof were separately dispersed in water and diluted to 500 ppm. Rice plant seedlings (variety: Nihonbare) were dipped in the agrochemical dispersions for 30 seconds. After air-dried, each seedling was put into a separate glass test tube and inoculated with ten 3rd-instar larvae of Laodelphax striatellus, and then the glass test tubes were capped with cotton plugs. At 8 days after the inoculation, the numbers of surviving larvae and dead larvae were counted, the corrected mortality rate was calculated according to the formula shown below, and the insecticidal efficacy was evaluated according to the criteria shown below. Corrected mortality rate (%)=100×(Survival rate in a non-treatment plot−Survival rate in a treatment plot)/Survival rate in a non-treatment plot [Math. 2] Corrected Mortality Rate A: the corrected mortality rate is 100%. B: the corrected mortality rate is 90 to 99%. C: the corrected mortality rate is 80 to 89%. D: the corrected mortality rate is 50 to 79%.
# Plutella xylostella = assay: Insecticidal test on Plutella xylostella (dip of Chinese cabbage seedlings with laid eggs); type: in vivo; conditions: 144 h, seedlings with laid eggs dipped about 30 seconds, 25° C., 6 days after dip treatment, criteria of Test Example 2, read-out: insecticidal efficacy (corrected mortality rate), activity level
# From the text: Insecticidal Test on Plutella xylostella
# Adults of Plutella xylostella were released onto Chinese cabbage seedlings and allowed to lay eggs thereon. At 2 days after the release of the adults, the Chinese cabbage seedlings with laid eggs were dipped for about 30 seconds in agrochemical dispersions diluted to 500 ppm, each of which contained a different condensed heterocyclic compound represented by the general formula (1) of the present invention as an active ingredient. After air-dried, the seedlings were kept in a thermostatic chamber at 25° C. At 6 days after the dip treatment, the number of hatched larvae per plot was counted, the mortality rate was calculated according to the formula shown below, and the insecticidal efficacy was evaluated according to the criteria of Test Example 2. This test was conducted in triplicate using 10 adults of Plutella xylostella per plot. Corrected mortality rate (%)=100×(Number of hatched larvae in a non-treatment plot−Number of hatched larvae in a treatment plot)/Number of hatched larvae in a non-treatment plot [Math. 3]
Structure (SMILES),mortality at 500 ppm (Laodelphax striatellus) [%],mortality at 500 ppm (Plutella xylostella) [%]
"CCS(=O)(=O)c1cc(-c2cccc(C(F)(F)F)c2)cnc1-c1nnc2cc(C(F)(F)F)ncn12 [Compound 2-36, 3-(3-(ethylsulfonyl)-5-(3-(trifluoromethyl)phenyl)pyridin-2-yl)-(7-trifluoromethyl)-[1,2,4]Triazolo[4,3-c]Pyrimidine]",100,100
"CCS(=O)(=O)c1cc2ccc(C(F)(F)F)cc2nc1-c1nnc2cc(C(F)(F)C(F)(F)F)ncn12 [Compound 4-27, 3-(ethylsulfonyl)-2-(7-pentafluoroethyl)-[1,2,4]triazolo[4,3-c]pyrimidin-3-yl-7-(trifluoromethyl) quinoline]",100,100
